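In this assay, cells in 96-well plates receive the compound at five concentrations for 48 hours. Endpoints are linearly interpolated between the surrounding concentrations. Abbreviation: GI50, concentration required for 50% inhibition of growth. TGI is the concentration that stops growth completely.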
Columns and labels:
Experiment in all cases: NCI anticancer screen, dose series, 48 h
[1] = tested on: SK-OV-3 ovarian
[2] = tested on: KM12 colon
[3] = tested on: HCT-116 colon
[4] = tested on: HS 578T breast
[5] = tested on: OVCAR-8 ovarian
[6] = tested on: CCRF-CEM leukemia
[7] = tested on: IGROV1 ovarian
[8] = tested on: SR leukemia
[9] = tested on: SNB-19 CNS
[10] = tested on: OVCAR-5 ovarian
[11] = tested on: MOLT-4 leukemia
[12] = tested on: M14 melanoma
[13] = tested on: UACC-257 melanoma
[14] = tested on: NCI-H226 lung
[15] = tested on: SK-MEL-5 melanoma
[16] = tested on: BT-549 breast
[17] = tested on: NCI-H522 lung
[18] = tested on: SNB-75 CNS
[19] = tested on: DU-145 prostate
[20] = tested on: SF-268 CNS
[21] = tested on: EKVX NSCLC
[22] = tested on: UO-31 renal
[23] = tested on: HCT-15 colon
[24] = tested on: RPMI-8226 leukemia
[25] = tested on: UACC-62 melanoma
[26] = tested on: MDA-MB-231 breast
[27] = tested on: PC-3 prostate
[28] = tested on: ACHN renal
[29] = tested on: K-562 leukemia
[30] = tested on: COLO 205 colon
[31] = tested on: NCI/ADR-RES ovarian
[32] = tested on: SN12C renal
[33] = tested on: OVCAR-4 ovarian
[34] = tested on: NCI-H23 lung
[35] = tested on: HOP-62 NSCLC
[36] = tested on: SK-MEL-28 melanoma
[37] = tested on: HT29 colon
[38] = tested on: SW-620 colon
[39] = tested on: LOX IMVI melanoma
[40] = tested on: U251 CNS
[41] = tested on: HCC-2998 colon
[42] = tested on: MCF7 breast
[43] = tested on: 786-0 renal
[44] = tested on: TK-10 renal
[45] = tested on: SF-295 CNS
[46] = tested on: NCI-H460 lung
[47] = tested on: A498 renal

COC(=O)[C@@H](C)C[C@H](Cc1ccc2ccccc2c1)NC(=O)c1csc([C@@H](C[C@H](C(C)C)N(C)C(=O)[C@@H](NC(=O)[C@H]2CCCCN2C)C(C)C)OC(C)=O)n1
GI50 [1]: 48 nM
TGI [1]: > 25000 nM
GI50 [2]: 11 nM
TGI [2]: > 25000 nM
GI50 [3]: 8.65 nM
TGI [3]: 13000 nM
GI50 [4]: 12.2 nM
TGI [4]: > 25000 nM
GI50 [5]: 44.5 nM
TGI [5]: > 25000 nM
GI50 [6]: 10.3 nM
TGI [6]: > 25000 nM
GI50 [7]: 18.3 nM
TGI [7]: > 25000 nM
GI50 [8]: 2.5 nM
TGI [8]: 3570 nM
GI50 [9]: 15.3 nM
TGI [9]: > 25000 nM
GI50 [10]: 62.9 nM
TGI [10]: > 25000 nM
GI50 [11]: 11.5 nM
TGI [11]: 7540 nM
GI50 [12]: 12.9 nM
TGI [12]: 4290 nM
GI50 [13]: 4130 nM
TGI [13]: 9420 nM
GI50 [14]: 7110 nM
TGI [14]: > 25000 nM
GI50 [15]: 12.2 nM
TGI [15]: 1420 nM
GI50 [16]: 13 nM
TGI [16]: 374 nM
GI50 [17]: 5.61 nM
TGI [17]: 6030 nM
GI50 [18]: 5.24 nM
TGI [18]: > 25000 nM
GI50 [19]: 9.84 nM
TGI [19]: > 25000 nM
GI50 [20]: 21 nM
TGI [20]: > 25000 nM
GI50 [21]: 41.8 nM
TGI [21]: > 25000 nM
GI50 [22]: 286 nM
TGI [22]: 5180 nM
GI50 [23]: 52.2 nM
TGI [23]: > 25000 nM
GI50 [24]: 9.32 nM
TGI [24]: 5990 nM
GI50 [25]: 9.95 nM
TGI [25]: 7780 nM
GI50 [26]: 20.6 nM
TGI [26]: 7170 nM
GI50 [27]: 10.6 nM
TGI [27]: 7770 nM
GI50 [28]: 164 nM
TGI [28]: 4590 nM
GI50 [29]: 7.06 nM
TGI [29]: 8760 nM
GI50 [30]: 16 nM
TGI [30]: 282 nM
GI50 [31]: 614 nM
TGI [31]: > 25000 nM
GI50 [32]: 47 nM
TGI [32]: > 25000 nM
GI50 [33]: 129 nM
TGI [33]: > 25000 nM
GI50 [34]: 28.1 nM
TGI [34]: > 25000 nM
GI50 [35]: 22.1 nM
TGI [35]: > 25000 nM
GI50 [36]: 2700 nM
TGI [36]: 6600 nM
GI50 [37]: 8.29 nM
TGI [37]: 4520 nM
GI50 [38]: 14.7 nM
TGI [38]: > 25000 nM
GI50 [39]: 13 nM
TGI [39]: 4780 nM
GI50 [40]: 12.8 nM
TGI [40]: 10700 nM
GI50 [41]: 52.9 nM
TGI [41]: 21600 nM
GI50 [42]: 6.99 nM
TGI [42]: 9210 nM
GI50 [43]: 9.94 nM
TGI [43]: 5080 nM
GI50 [44]: 8800 nM
TGI [44]: > 25000 nM
GI50 [45]: 10.7 nM
TGI [45]: > 25000 nM
GI50 [46]: 11.8 nM
TGI [46]: > 25000 nM
GI50 [47]: 74.5 nM
TGI [47]: > 25000 nM

— PubChem BioAssay (NCI)
